From patent US20110229892A1, “METHOD FOR PREDICTING A PATIENT'S RESPONSIVENESS TO ANTI-FOLATE THERAPY” (priority 2008, published 2011)
Where two headings read alike, the source gives them in different places.

Assays:
[1] = tested on: CEM-MTX^R10 cells; assay: Antifolate growth inhibition assay (XTT), MTX-resistant subline; assay type: cell-based; settings: Homo sapiens, 72 h, read-out: IC50 growth inhibition
Procedure: (§1) Tissue Culture: The human T-cell lymphocytic leukemia lines CCRF-CEM and Molt-4 as well as their antifolate-resistant sublines CEM-MTX^R5P, CEM-MTX^R10, CEM-7OH MTX and Molt-4-7OH MTX were maintained in RPMI-1640 medium (GIBCO) containing 2.3 μM folic acid supplemented with 10% fetal bovine serum, 2 mM glutamine, 100 units/ml penicillin G and 100 μg/ml streptomycin sulfate (Biological Industries, Beth-Haemek, Israel). The MTX-resistant sublines MTX^R5P and MTX^R10 were established by exposure of parental CCRF-CEM cells to 6 cycles each of 24 hr pulse of 5 or 10 μM MTX, respectively (Sigma) as follows: after an initial 24 hr pulse exposure of parental CCRF-CEM cells to 5 or 10 μM MTX at 37° C., cells were washed once with drug-free growth medium, adjusted to 3×10^5 cells/ml and allowed to grow for 1-2 weeks. Thereafter, a maintenance treatment of 24 hr pulses of MTX was performed once a month. CEM-7OH MTX and Molt-4-7OH MTX were established and maintained as previously described [Fotoohi K, et al., Blood. 2004; 104:4194-4201].
(§2) Antifolate growth inhibition assay: Parental cells and their antifolate-resistant sublines as well as FPGS-transfected cells were first grown in antifolate-free growth medium for 5-7 cell doublings. Thereafter, cells were seeded in 96-well plates (3×10^4/well) in growth medium (100 μl/well) containing various concentrations of the different antifolates (e.g. MTX, ZD1694 and ZD9331). After 3 days of incubation at 37° C., viable cell numbers were determined using the Cell Proliferation Kit (XTT) (Biological Industries). Percent inhibition of cell growth was calculated relative to untreated controls. Results presented are means of at least three independent experiments.

[2] = tested on: CCRF-CEM WT cells; assay: Antifolate growth inhibition assay (XTT), parental cells; assay type: cell-based; settings: Homo sapiens, 72 h, read-out: IC50 growth inhibition
Procedure: as §1, §2

[3] = tested on: CEM-MTX^R5P cells; assay: Antifolate growth inhibition assay (XTT), MTX-resistant subline; assay type: cell-based, human; settings: for IC50: Homo sapiens, 72 h, read-out: IC50 growth inhibition
Procedure: as §1, §2

[4] = biological target: T1, RFC (SLC19A1) (Homo sapiens, UniProt P41440); assay: [^3H]MTX transport assay; assay type: cell-based; settings: 2 μM [3H]MTX, 3 min, 37° C.
T1 construct: endogenous in cells; host or cells: CCRF-CEM parental cells and antifolate-resistant sublines (MTX^R5P, CEM/MTX^R10)
T1 sequence (P41440 1-591): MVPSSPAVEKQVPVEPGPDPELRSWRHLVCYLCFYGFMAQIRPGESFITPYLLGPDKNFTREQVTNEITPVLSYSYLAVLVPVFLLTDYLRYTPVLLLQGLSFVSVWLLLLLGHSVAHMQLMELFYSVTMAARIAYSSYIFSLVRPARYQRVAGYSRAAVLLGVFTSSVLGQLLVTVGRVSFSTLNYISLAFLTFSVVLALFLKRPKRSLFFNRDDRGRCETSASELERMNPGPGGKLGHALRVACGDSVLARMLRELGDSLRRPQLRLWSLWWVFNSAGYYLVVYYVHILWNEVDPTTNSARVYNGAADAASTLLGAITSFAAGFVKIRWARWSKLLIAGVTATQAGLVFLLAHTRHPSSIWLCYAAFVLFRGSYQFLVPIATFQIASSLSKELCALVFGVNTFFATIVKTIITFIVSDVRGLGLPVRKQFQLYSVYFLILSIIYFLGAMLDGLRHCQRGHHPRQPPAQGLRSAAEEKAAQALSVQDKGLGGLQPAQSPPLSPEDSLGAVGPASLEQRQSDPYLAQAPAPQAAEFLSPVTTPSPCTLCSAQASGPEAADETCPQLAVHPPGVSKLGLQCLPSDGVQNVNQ
Procedure: [^3H]MTX transport assay: [^3H]MTX influx rates were determined as previously described [Jansen Get al., J Biol Chem. 1990; 265:18272-18277]. Briefly, cells (2×10^7) were washed with ice-cold HBS (20 mM HEPES, 140 mM NaCl, 5 mM KCl, 2 mM MgCl2, and 5 mM glucose, at pH 7.4) and incubated at 37° C. for 3 min in HBS containing 2 μM [3′,5′,7-^3H]-Methotrexate (0.555 TBq/mmol; […]; Moravek Biochemicals, Brea, Calif.). Transport controls contained a 500-fold excess (1 mM) of unlabeled MTX. Transport was stopped by the addition of 10 ml of ice-cold HBS. Then, the cell suspension was centrifuged, washed with ice-cold HBS and suspended in water for scintillation counting.

[5] = tested on: MTX^R10 cells overexpressing normal FPGS (pcDNA3/hFPGS transfectant); assay: Antifolate cytotoxicity in FPGS-transfected cells; assay type: cell-based, human; settings: MTX^R10 cells transfected with normal FPGS, compared with parental cells
Procedure: as §2
Expression Vectors: pcDNA3/hFPGS harboring the full-length human FPGS cDNA was provided. […]
Stable Transfections with hFPGS Expression Constructs: Exponentially growing cells (i.e. CCRF-CEM and)CEM-MTX^R10) were harvested by centrifugation and stably transfected by electroporation (1000 μF, 234V) with 10 μg of the vectors pcDNA3.1, pIRES2-EGFP, pcDNA3/hFPGS or pIRES/FPGSΔexon10. […] Stable transfectants obtained after 4 weeks of G-418 selection were analyzed for FPGS mRNA levels by Northern blots as detailed below and used for further analyses.

[6] = CEM-MTX^R10, 3 days incubation, XTT
[7] = CCRF-CEM WT, 3 days incubation, XTT
[8] = CEM-MTX^R5P, 3 days incubation, XTT
[9] = MTX^R5P cells vs parental cells

MTX Influx ([4]; CCRF-CEM WT (parental reference)) | MTX Influx ([4]; CEM-MTX^R5P, relative to parental cells) | MTX Influx ([4]; CEM-MTX^R5P, relative to parental cells, listed as [^3H]MTX) | MTX Influx ([4]; CEM-MTX^R10, relative to parental cells) | SMILES | IC50 [1, 6] | IC50 [2, 7] | IC50 [3, 8] | sensitivity after ectopic overexpression of normal FPGS [5] | resistance relative to parental CCRF-CEM cells [3, 9] | IC50 [1] | IC50 ([2]; CCRF-CEM) | IC50 [3] | increased sensitivity relative to parental cells [3, 9]
100% | 50 ± 5% | 50% | 91 + 6% | CN(Cc1cnc2nc(N)nc(N)c2n1)c1ccc(C(=O)N[C@@H](CCC(=O)O)C(=O)O)cc1 [MTX, methotrexate] | 28.2 ± 2.9 nM | 25.7 ± 2.1 nM | 23.1 ± 2 nM | – | – | – | – | – | –
– | – | – | – | Cc1nc2ccc(CN(C)c3ccc(C(=O)N[C@@H](CCC(=O)O)C(=O)O)s3)cc2c(=O)[nH]1 [ZD1964, raltitrexed] | 110 ± 9.8 nM | 6.06 ± 0.42 nM | > 300000 nM | fully restored parental cell sensitivity | 50,000 fold | – | – | – | –
– | – | – | – | C#CCN(Cc1cc2c(=O)[nH]c(C)nc2cc1C)c1ccc(C(=O)N[C@@H](CCc2nnn[nH]2)C(=O)O)c(F)c1 [ZD9331, plevitrexed] | – | – | – | – | – | 40.8 ± 4.1 nM | 28.6 ± 2.3 nM | 13.9 ± 1.7 nM | 2 fold
